For experiment [1], the target named is T1, NSD2 (Homo sapiens, UniProt O96028).
T1 sequence (O96028 1-1365): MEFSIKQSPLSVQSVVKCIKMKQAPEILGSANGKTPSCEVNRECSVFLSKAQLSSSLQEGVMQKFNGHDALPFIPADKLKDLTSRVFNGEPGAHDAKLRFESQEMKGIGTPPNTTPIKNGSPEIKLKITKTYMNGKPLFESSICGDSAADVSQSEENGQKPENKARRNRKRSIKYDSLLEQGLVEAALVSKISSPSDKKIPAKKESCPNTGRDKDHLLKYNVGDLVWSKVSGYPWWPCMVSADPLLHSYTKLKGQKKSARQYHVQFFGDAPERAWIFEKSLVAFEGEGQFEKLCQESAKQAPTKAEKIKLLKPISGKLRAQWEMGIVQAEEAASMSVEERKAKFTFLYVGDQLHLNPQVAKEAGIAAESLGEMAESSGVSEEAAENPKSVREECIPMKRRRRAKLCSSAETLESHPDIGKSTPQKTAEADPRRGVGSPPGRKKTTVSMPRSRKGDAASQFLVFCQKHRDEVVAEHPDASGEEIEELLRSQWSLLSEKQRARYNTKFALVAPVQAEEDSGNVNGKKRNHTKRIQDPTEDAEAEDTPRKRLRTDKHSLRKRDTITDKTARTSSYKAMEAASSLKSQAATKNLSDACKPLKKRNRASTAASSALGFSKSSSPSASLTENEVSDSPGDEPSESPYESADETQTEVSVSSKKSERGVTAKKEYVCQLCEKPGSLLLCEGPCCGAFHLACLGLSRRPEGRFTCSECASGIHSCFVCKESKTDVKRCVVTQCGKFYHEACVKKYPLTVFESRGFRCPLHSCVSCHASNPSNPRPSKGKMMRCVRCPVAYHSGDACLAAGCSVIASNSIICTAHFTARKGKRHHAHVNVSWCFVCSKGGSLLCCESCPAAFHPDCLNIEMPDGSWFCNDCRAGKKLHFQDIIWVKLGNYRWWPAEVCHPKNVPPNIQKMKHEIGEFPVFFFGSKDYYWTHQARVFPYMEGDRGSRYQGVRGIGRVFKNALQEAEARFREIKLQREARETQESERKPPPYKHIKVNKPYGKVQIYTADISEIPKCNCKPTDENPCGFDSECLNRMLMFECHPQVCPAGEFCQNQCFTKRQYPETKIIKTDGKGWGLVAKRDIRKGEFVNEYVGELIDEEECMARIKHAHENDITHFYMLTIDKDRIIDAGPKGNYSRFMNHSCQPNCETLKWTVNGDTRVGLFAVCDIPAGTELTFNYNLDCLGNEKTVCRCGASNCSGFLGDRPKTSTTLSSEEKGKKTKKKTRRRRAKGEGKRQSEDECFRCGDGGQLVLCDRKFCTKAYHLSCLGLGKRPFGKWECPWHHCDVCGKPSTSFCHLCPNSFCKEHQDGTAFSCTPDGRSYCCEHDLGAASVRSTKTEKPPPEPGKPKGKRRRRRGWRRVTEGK
The experiment in a line: Compound screening: NSD2 degradation by immunoblotting in VCaP cells. The settings on record: VCaP, 24 h. (In western blotting, separated proteins are transferred to a membrane and probed.)
Method: After treatment, the cultured cells were collected and rinsed with phosphate-buffered saline (PBS) in room temperature. The cells were treated with RIPA buffers (ThermoFisher Scientific) supplemented with Halt Protease and Phosphatase Inhibitor Cocktail (ThermoFisher Scientific). After sonication and centrifugation, the total amount of protein in the cell lysates was measured by Pierce Bovine Serum Albumin Standard Pre-Diluted Set (ThermoFisher Scientific). […] After incubated with HRP-conjugated secondary antibodies, the membranes were developed with ECL Prime Western Blotting Detection Reagent (cytiva) and imaged on Odyssey Fc Imager (LiCOR Biosciences).
Western blot was then performed as previously described to detect NSD2 degradation.

Experiment [2] addresses T1, NSD2. The experiment in a line: Pharmacodynamic assessment in 22RV1 xenograft model. Type of experiment: in vivo, mice. Further details: from tissue; host or cells: 22RV1 subcutaneous xenograft tumours in CB17 SCID mice. The settings on record: 5 consecutive days. The protocol:
We finally performed pharmacodynamic assessment of LLC0424 in both the SEM and 22RV1 xenograft model. Based on the solubility of LLC0424 and the tolerance of the mice, we chose 60 mg/kg as the dosage for the pharmacodynamic study. LLC0424 was administrated by intravenous (iv) or intraperitoneal (ip) injection at a dose of 60 mg/kg for 5 consecutive days. The tumor tissues were harvested at day 5 and subjected to histology and Western blot analysis (Figure 7A, and SI, Figure S6A).
First, 6–8 weeks old male CB17 severe combined immunodeficiency (SCID) mice were procured from the University of Michigan breeding colony. Subcutaneous tumors were established at both sides of the dorsal flank of mice. Tumors were measured at least biweekly using digital calipers following the formula (π/6) (L × W2), where L is length and W is width of the tumor. At the end of the studies, mice were sacrificed and tumors extracted. For each tumor, a part is […] followed by embedding in paraffin to make tissue blocks. The blocks were sectioned at […] for immunohistochemistry analysis. Another part is made into tissue lysates for Western blotting analysis. The University of Michigan Institutional Animal Care and Use Committee (IACUC) approved all in vivo studies. […]

Read-outs that look alike come from different tables or passages of the source.

Regarding `O=C1CCC(N2C(=O)c3ccc(N4CCC(NC(=O)c5ccc(NC(=O)c6ccc(CN(C(=O)c7ccc8c(c7)OCC(=O)N8)C7CC7)cc6)cc5)CC4)cc3C2=O)C(=O)N1` (stereo not shown) [compound 10l, N-Cyclopropyl-N-(4-((4-((1-(2-(2,6-dioxopiperidin-3-yl)-1,3-dioxoisoindolin-5-yl)piperidin-4-yl)carbamoyl)phenyl)carbamoyl)benzyl)-3-oxo-3,4-dihydro-2H-benzo[b][1,4]oxazine-7-carboxamide], the Dmax at 2 µM on NSD2 [1] (read-out: 2.0 μM Degradation % (VCaP)) and on NSD2 [1] (read-out: % Degradation) was 95% each time. Also, at NSD2 [2] (60 mg/kg iv or ip, versus vehicle), the “NSD2 level in tumor tissue” value was “significantly downregulated”. Besides, the “NSD2 degradation, iv versus ip administration” value on NSD2 [2] (60 mg/kg) is recorded as “comparable level of NSD2 degradation”.

For the origin of these results see PMC11094793, “Discovery of LLC0424 as a Potent and Selective in Vivo NSD2 PROTAC Degrader” (Journal of Medicinal Chemistry, 2024).
